In the CheMixHub drug solubility set:

Assay: xn = mol fraction of the nth substance listed, in the solute-free solvent

O=CC(O)C(O)C(O)CO (configuration not stated) + CCO + ClCCl
solubility (g/100 g solution)
Conditions	x2 = 0.1	x2 = 0.2	x2 = 0.3	x2 = 0.4	x2 = 0.5	x2 = 0.6	x2 = 0.7	x2 = 0.8	x2 = 0.9
283.15 K	0.222	0.374	0.669	1.02	1.41	1.64	1.88	2.05	2.24
288.15 K	0.227	0.458	0.813	1.26	1.81	2.12	2.32	2.57	2.85
293.15 K	0.254	0.522	1.1	1.55	2.15	2.55	2.96	3.23	3.55
298.15 K	0.264	0.645	1.28	1.9	2.77	3.18	3.69	4.2	4.58
303.15 K	0.325	0.776	1.43	2.28	3.27	4.09	4.72	5.4	5.99

Cl.NC(C=O)C(O)C(O)C(O)CO (configuration not stated) + O + CO
solubility (g/100 g solution)
Conditions	283.15 K	288.15 K	293.15 K	298.15 K	303.15 K	308.15 K	313.15 K	318.15 K	323.15 K
x2 = 0.2	0.992	1.03	1.13	1.23	1.35	1.48	1.55	1.7	1.83
x2 = 0.4	2.16	2.53	2.73	2.95	3.19	3.51	3.82	4.32	4.72
x2 = 0.6	4.73	5.53	6	6.76	7.4	8.23	9.01	10	10.9
x2 = 0.8	10.2	11.5	12.8	13.9	15.2	16.7	18.1	19.7	21.3
x2 = 0.9	15.2	16.6	18	19.7	21	22.9	24.2	25.8	27.9

O=C(O)c1ccc(-n2nc(-c3ccccc3O)nc2-c2ccccc2O)cc1 + CCO + CO
298.15 K
Conditions	solubility (g/100 g solution)
x2 = 0.07174	12.7
x2 = 0.1481	12.9
x2 = 0.2296	12.8
x2 = 0.3168	12.7
x2 = 0.4102	12.5
x2 = 0.5106	12.2
x2 = 0.6188	11.9
x2 = 0.7356	11.5
x2 = 0.8623	11

CC1CCC2(C(=O)O)CCC3(C)C(=CCC4C5(C)CCC(O)C(C)(C)C5CCC43C)C2C1C (configuration not stated) + CC(C)O + O
solubility (g/100 g solution)
Conditions	293.15 K	298.15 K	303.15 K	308.15 K	313.15 K	318.15 K	323.15 K	328.15 K	333.15 K
x2 = 0.0908	0.00219	0.00363	0.00394	0.00575	0.00586	0.00613	0.00653	0.00668	0.0109
x2 = 0.1389	0.00363	0.00474	0.00741	0.00959	0.0147	0.0158	0.0187	0.036	0.0388
x2 = 0.1969	0.0293	0.0352	0.0473	0.0614	0.0752	0.0821	0.0985	0.111	0.13
x2 = 0.2681	0.0944	0.118	0.13	0.142	0.158	0.22	0.239	0.282	0.33
x2 = 0.3575	0.146	0.195	0.236	0.284	0.359	0.387	0.493	0.514	0.656
x2 = 0.4734	0.171	0.276	0.328	0.378	0.529	0.672	1.01	1.16	1.21

O=C(O)c1ccc(-n2nc(-c3ccccc3O)nc2-c2ccccc2O)cc1 + CC(O)CO + CC#N
298.15 K
Conditions	solubility (g/100 g solution)
x2 = 0.05655	2.43
x2 = 0.1188	4.43
x2 = 0.1878	6.62
x2 = 0.2645	8.48
x2 = 0.3504	9.81
x2 = 0.4473	10.7
x2 = 0.5573	11.3
x2 = 0.6833	11.4
x2 = 0.8292	11
